Reference: patent US20260240851A1, “Treatment of Parkinson's Disease in a Patient Using a Glucocerebrosidase Activator” (BIAL - R&D Investments, S.A., priority 2023, published 2026)

Tests used:
[1] = LTI-291-003: safety and tolerability; type: in vivo, human
From the text: This study was a Phase 1b, randomized, double-blind, placebo-controlled, multiple oral dose study of Compound A in 40 subjects (aged 40 to 80 years) with GBA-PD. Approximately 50% of the enrolled subjects had major (loss of 30%-50% total activity) mutations in GCase and 50% had polymorphism mutation (loss of 10%-20% of total activity) mutations in GCase. The objectives of this study were to investigate the safety, tolerability, and PK of multiple once-daily oral administration of Compound A and to explore the accompanying pharmacodynamic changes in subjects with GBA-PD with major and polymorphism mutations. Subjects received once-daily oral doses of 10 mg (n=10), 30 mg (n=10), or 60 mg (2×30 mg capsules) (n=10) Compound A or placebo (n=10) for 28 consecutive days.

[2] = BIA 28-6156-110 DDI, rosuvastatin portion; type: in vivo, human; details: after 6 days of dosing with 60 mg, rosuvastatin portion
Method: In Cohort 1, a single oral dose of 10 mg rosuvastatin was administered alone on Day 1. No drug was administered on Day 2. From Day 3 to Day 8, a single daily dose of 60 mg Compound A was administered.

GCase = target: T1, GCase (Homo sapiens, UniProt P04062); assay: In vitro GCase brain homogenate activity assay superimposed on estimated human brain Cb,min,ss; type: biochemical; details: for minimum GCase activity in GBA-PD patients: brain Cmin at steady state (Cb,min,ss), estimated
T1 construct: brain homogenate (5 μg/well) as enzyme source; from tissue; host or cells: human brain homogenate
T1 sequence (P04062 40-536): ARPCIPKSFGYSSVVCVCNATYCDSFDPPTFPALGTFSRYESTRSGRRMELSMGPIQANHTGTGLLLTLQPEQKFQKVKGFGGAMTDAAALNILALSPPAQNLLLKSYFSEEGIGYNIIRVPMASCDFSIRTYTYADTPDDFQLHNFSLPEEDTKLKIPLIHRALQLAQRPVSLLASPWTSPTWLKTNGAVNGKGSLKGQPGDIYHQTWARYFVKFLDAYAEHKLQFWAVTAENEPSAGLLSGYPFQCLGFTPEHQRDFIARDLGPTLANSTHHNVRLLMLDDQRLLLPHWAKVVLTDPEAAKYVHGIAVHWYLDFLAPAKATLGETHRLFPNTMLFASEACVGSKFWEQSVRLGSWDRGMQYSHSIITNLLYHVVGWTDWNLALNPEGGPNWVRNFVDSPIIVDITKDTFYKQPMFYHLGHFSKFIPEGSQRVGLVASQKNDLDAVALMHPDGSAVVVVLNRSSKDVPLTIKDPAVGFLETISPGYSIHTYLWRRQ
From the text: The in vitro measurement of GCase activity in human brain homogenates was used to correlate the exposure and GCase activity and to estimate the increase in GCase activity in the brain of GBA-PD patients at Cmin at steady state (Cb,min,ss) across different dose levels. The relationship between concentration observed in brain and CSF in rat was used to obtain the brain concentrations of Compound A in humans, assuming the same relationship conserved among mammalian species. The range of human estimated Cb,min,ss were superimposed to the corresponding concentration from in vitro study with human brain homogenates to obtain the GCase activation by Compound A.
The activity of Compound A in the GCase assay was determined using 4-MUG (1 mM) as substrate and brain homogenate (5 μg/well) as enzyme source.
A 500 μl aliquot of a 1.0 mg/ml solution of phosphatidylserine (PS, Sigma P7769) in chloroform was evaporated under a stream of nitrogen for 1 hour. The lipid film was dissolved with 4 minutes of vigorous vortexing in 41 ml of 176 mM K2HPO4/50 mM citric acid pH 4.7 containing 7.7 μl of triton X-100, resulting in a mixed micellar preparation with a composition of 0.32 mM triton and 4.6 mol % PS.
4-methylumbelliferyl-beta-D-glucopyranoside (4-MUG, ACROS-337025000) was dissolved in the micellar solution to a final concentration of 2 mM for use as the reaction substrate. The micellar/homogenate solution was prepared by adding 3.2 ml Triton X-100/phosphotidylserine mixed micelles containing 400 μg/mL brain homogenate. A 1.6 mL portion of this mixture received 32 μl conduritol B epoxide (CBE, 100 mM stock in DMSO) for final concentration of 2 mM CBE. The remaining 1.6 mL portion received 32 μl DMSO as solvent control. Compound A was diluted with DMSO from a 10 mM stock to the desired assay concentrations, and 0.45 μl of compound in DMSO was added to 75 μl of micellar/homogenate solution (+/−CBE).
After a 30 minute pre-incubation at room temperature, the reaction was initiated by combining 25 μl of substrate solution with 25 μl of compound/GCase/homogenate mixture. The reaction proceeded for 30 minutes at room temperature for Rat, Cyno and Dog brain homogenates, 60 minutes for Mouse and Human brain homogenate. The reaction was stopped by adding 150 μl of 1M glycine, pH 12.5. The endpoint fluorescence intensity of the reaction was measured at excitation 365 nm, emission 440 nm on a SpectraMax i3 instrument (Molecular Devices). Compound activity was expressed relative to a DMSO control. […]
An API4000 mass spectrometer equipped with a turbo ion spray source was used for detection in positive ion mode. Quantification was based on multiple reaction monitoring (MRM) of the transitions of m/z 359.2-174.2 for LTI-291 and m/z 365.3-180.2 for its internal standard. […]

CCCCCO[C@H]1CC[C@H](NC(=O)c2cnn3c(C)cc(C)nc23)CC1 [Compound A, 5,7-dimethyl-N-((1S*,4S)-4-(pentyloxy)cyclohexyl)pyrazolo[1,5-a]pyrimidine-3-carboxamide]
deaths, SAEs, severe AEs, discontinuations due to AEs ([1]; 10-60 mg daily for 28 days, GBA-PD): No deaths, other SAEs, severe AEs, or discontinuations due to AEs
vital signs, laboratory safety assessments, ECG parameters ([1]; 28 days): no clinically significant safety observations
AE back pain, patients ([1]; all Compound A groups): 13.3%
AE fatigue, patients ([1]; all Compound A groups): 16.7%
AE headache, subjects ([1]; all Compound A groups): 13.3%
AE worsening of Parkinson's disease symptoms, subjects ([1]; all Compound A groups): 13.3%
steady state concentrations of Compound A [2]: appeared not to have been reached
minimum GCase activity in GBA-PD patients (GCase; 10 mg): 69.7-123%
minimum GCase activity relative to effective GCase activity (GCase; 10 mg, dosing interval 24 h): approximately 2 times
minimum GCase activity in GBA-PD patients (GCase; 30 mg): 163-306%
minimum GCase activity in GBA-PD patients (GCase; 60 mg): 255-376%
